Experimental data published in US10052320B2, “Substituted quinoxalines as FGFR kinase inhibitors” (ASTEX THERAPEUTICS LIMITED, priority 2011, dated 2018).
Where two headings read alike, the source gives them in different places.

How the values were obtained:
[1] = molecular target: KDR (h) (VEGFR2) (Homo sapiens, UniProt P35968); assay: KDR (VEGFR2) (enzymatic assay), TR-FRET; type: biochemical
Method in brief: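 Enzyme at 150 ng/ml was incubated 120 min at room temperature with 500 nM Btn-Flt3 peptide and 3 μM ATP in 50 mM HEPES pH 7.5, 6 mM MnCl2, 1 mM DTT, 0.1 mM Na3VO4, 0.01% Triton-X-100, 1% DMSO final. EDTA stop with Eu-anti-P-Tyr/SA-XL-665, 60 min; TR-FRET read in RFU.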

[2] = system: Ba/F3-KDR-transfected cells in the presence of 10 ng/ml murine IL3; assay: Ba/F3-KDR (plus IL3) cellular proliferation counterscreen, Alamar Blue; type: cell-based; settings: for IC50: Mus musculus
Experimental: Ba/F3-KDR (Minus IL3 or Plus IL3) (Cellular Proliferation Assay)
[…] Cells were put in an incubator at 37° C. and 5% CO2. After 24 hours, 10 μl of Alamar Blue solution (0.5 mM K3Fe(CN)6, 0.5 mM KaFe(CN)6, 0.15 mM Resazurin and 100 mM Phosphate Buffer) was added to the wells, incubated for 4 hours at 37° C. and 5% CO2 before RFU's (Relative Fluorescence Units) (ex. 540 nm., em. 590 nm.) were measured in a flurorescence plate reader.
As a counterscreen the same experiment was performed in the presence of 10 ng/ml murine IL3.
In a 96 well plate, 180 μl cell culture medium (phenol red free RPMI-1640, 10% FBS, 2 mM L-Glutamine and 50 μg/ml Gentamycin) containing 10000 cells per well of Ba/F3-KDR-transfected cells were pipette and 20 μl of compound dilution in DMSO was added. Cells were put in an incubator at 37° C. and 5% CO2. After 24 hours, 40 μl of Alamar Blue solution (0.5 mM K3Fe(CN)6, 0.5 mM KaFe(CN)6, 0.15 mM Resazurin and 100 mM Phosphate Buffer) was added to the wells, incubated for 4 hours at 37° C. and 5% CO2 RFU's (Relative Fluorescence Units) (ex. 540 nm., em. 590 nm.) were measured in a flurorescence plate reader.

[3] = molecular target: FGFR1 (h) (Homo sapiens, UniProt P11362); assay: FGFR1 (enzymatic assay), TR-FRET; type: biochemical; settings: read-out: FGFR 1 pIC50 (converted)
FGFR1 (h), sequence (P11362 22-822): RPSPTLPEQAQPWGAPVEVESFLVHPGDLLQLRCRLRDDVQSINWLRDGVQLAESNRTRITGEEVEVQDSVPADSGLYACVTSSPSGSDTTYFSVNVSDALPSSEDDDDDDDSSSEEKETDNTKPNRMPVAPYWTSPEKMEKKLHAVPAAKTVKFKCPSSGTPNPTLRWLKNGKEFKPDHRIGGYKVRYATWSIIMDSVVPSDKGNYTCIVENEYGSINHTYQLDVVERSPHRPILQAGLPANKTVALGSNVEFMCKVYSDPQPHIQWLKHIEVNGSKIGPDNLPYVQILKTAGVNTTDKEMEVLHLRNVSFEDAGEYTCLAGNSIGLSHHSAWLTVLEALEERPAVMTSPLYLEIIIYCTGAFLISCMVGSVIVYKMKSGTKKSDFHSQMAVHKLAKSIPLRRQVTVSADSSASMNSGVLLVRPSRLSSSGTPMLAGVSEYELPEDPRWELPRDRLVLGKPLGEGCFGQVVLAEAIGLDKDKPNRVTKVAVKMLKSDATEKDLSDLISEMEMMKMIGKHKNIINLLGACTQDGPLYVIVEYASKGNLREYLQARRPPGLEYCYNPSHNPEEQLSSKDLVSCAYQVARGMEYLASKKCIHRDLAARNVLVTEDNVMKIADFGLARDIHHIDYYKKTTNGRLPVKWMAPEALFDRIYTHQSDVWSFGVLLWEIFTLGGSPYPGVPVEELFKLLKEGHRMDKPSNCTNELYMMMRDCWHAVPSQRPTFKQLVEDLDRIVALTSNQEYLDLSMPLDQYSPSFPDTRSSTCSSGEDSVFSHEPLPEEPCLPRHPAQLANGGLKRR
Experimental: In a final reaction volume of 30 μL, FGFR1 (h) (25 ng/ml) was incubated with 50 mM HEPES pH 7.5, 6 mM MnCl2, 1 mM DTT, 0.1 mM Na3VO4, 0.01% Triton-X-100, 500 nM Btn-Flt3 and 5 μM ATP in the presence of compound (1% DMSO final). […] Time-Resolved Fluorescence Resonance Energy Transfer (TR-FRET) signal (ex340 nm. Em 620 nm, em 655 nm) was measured afterwards and results are expressed in RFU (Relative Fluorescence Units).

[4] = molecular target: T1, Ba/F3-Flt3-transfected cells (Homo sapiens, UniProt P36888, cells depend on it, form not given); assay: Ba/F3-Flt3 (minus IL3) cellular proliferation assay, Alamar Blue; type: cell-based
T1 sequence (P36888 1-993): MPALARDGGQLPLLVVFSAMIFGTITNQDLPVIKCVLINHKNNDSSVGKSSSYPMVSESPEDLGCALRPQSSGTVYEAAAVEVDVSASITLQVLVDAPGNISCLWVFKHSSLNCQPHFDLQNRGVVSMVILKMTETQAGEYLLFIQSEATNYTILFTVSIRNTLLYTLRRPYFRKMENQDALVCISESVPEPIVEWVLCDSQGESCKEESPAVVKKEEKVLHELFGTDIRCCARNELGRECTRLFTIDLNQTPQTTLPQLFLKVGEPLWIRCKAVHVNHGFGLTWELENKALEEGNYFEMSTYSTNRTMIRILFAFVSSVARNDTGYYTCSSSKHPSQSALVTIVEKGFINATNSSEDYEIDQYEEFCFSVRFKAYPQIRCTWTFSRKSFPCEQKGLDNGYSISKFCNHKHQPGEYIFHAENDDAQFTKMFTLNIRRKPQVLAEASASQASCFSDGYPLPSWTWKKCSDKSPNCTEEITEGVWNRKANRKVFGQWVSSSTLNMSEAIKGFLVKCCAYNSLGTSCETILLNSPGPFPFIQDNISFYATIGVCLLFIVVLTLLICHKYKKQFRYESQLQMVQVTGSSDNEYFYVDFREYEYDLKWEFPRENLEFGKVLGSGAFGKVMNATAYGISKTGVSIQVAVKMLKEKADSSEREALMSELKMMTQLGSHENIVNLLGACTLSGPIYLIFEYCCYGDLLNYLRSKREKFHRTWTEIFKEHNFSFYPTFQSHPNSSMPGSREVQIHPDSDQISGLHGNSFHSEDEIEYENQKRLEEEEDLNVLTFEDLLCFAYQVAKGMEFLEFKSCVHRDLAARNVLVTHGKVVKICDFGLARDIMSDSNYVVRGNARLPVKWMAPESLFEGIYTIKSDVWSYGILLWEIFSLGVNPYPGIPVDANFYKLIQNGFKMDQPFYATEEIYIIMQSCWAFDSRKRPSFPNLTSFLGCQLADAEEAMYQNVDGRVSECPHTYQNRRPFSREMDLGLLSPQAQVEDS

[5] = plus 10 ng/ml murine IL3, read-out: BAF3-KDR (PLUS IL3) 384 well pIC50 (converted)

KDR (h) (VEGFR2), sequence (P35968 20-1356): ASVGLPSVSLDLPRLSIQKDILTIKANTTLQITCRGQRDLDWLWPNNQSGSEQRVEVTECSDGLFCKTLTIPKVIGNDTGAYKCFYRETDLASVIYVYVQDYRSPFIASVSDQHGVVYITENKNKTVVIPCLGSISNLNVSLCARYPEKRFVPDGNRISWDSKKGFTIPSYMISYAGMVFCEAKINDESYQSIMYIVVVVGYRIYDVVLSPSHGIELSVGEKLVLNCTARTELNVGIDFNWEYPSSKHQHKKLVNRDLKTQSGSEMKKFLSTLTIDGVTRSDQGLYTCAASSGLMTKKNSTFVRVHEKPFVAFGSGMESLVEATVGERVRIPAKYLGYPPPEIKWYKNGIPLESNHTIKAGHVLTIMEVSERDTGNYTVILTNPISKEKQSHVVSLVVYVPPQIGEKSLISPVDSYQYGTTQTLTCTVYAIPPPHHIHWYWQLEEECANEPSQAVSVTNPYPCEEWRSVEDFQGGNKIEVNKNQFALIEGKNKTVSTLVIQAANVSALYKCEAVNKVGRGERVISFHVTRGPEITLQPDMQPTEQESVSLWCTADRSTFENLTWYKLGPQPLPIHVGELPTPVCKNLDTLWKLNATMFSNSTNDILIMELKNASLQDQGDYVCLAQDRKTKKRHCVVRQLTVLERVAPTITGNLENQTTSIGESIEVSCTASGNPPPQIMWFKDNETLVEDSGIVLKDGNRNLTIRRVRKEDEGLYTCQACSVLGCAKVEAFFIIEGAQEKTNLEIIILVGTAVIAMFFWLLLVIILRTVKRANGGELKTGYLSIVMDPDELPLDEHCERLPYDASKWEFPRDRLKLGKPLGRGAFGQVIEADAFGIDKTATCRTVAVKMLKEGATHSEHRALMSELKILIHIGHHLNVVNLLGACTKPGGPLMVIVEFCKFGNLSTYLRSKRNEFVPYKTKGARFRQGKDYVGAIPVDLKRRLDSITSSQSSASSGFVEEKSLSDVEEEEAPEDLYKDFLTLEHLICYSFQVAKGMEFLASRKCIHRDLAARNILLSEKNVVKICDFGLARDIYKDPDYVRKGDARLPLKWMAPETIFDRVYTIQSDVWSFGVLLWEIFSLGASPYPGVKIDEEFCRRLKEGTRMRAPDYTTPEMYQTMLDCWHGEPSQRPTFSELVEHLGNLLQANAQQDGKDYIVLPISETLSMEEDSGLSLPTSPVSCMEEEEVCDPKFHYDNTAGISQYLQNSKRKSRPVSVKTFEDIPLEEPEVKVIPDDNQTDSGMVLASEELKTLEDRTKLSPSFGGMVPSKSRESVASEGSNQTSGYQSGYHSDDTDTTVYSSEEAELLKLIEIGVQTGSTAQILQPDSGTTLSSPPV

SMILES | IC50 [1] [nM] | IC50 [2, 5] [nM] | IC50 [3] [nM] | BAF3-FLT3 (MIN IL3) 384 well pIC50 ([4]; minus IL3) | BAF3-KDR (PLUS IL3) 384 well pIC50 ([2]; plus 10 ng/ml murine IL3) | BAF3-FLT3 (MIN IL3) 96 well pIC50 ([4]; minus IL3) | IC50 ([2]; read-out: BAF3-KDR (PLUS IL3) 384 well pIC50, plus IL3, 384 well, read-out: BAF3-KDR (PLUS IL3) 284 well pIC50 (converted)) [nM] | BAF3-FLT3 (MIN IL3) 96 well pIC50 ([4]; minus IL3, 96 well) | BAF3-FLT3 (MIN IL3) 384 well pIC50 ([4]; minus IL3, 384 well)
COCC(O)CN(c1cc(OC)cc(OC)c1)c1ccc2ncc(-c3cccnc3)nc2c1 (single isomer, unassigned) [Compound 46] | 295 | > 10000 | 12.6 | <5 |  |  |  |  | 
COCC(O)CN(c1cc(OC)cc(OC)c1)c1ccc2ncc(-c3cccnc3)nc2c1 (single isomer, unassigned) [Compound 47] | 339 |  | 21.4 | <5 | <5 |  |  |  | 
COCC(CN(c1cc(OC)cc(OC)c1)c1ccc2ncc(-c3cccnc3)nc2c1)OC(C)=O (single isomer, unassigned) [Compound 76] | 389 |  | 11.7 | <5 | <5 |  |  |  | 
COc1cc(OC)cc(N(CCCNCC(F)(F)F)c2ccc3ncc(-c4cnc(OC)nc4)nc3c2)c1 [Compound 26] | > 1000 | > 10000 | 112 |  |  |  |  |  | 
COc1cc(OC)cc(N(CC2CC2)c2ccc3ncc(NC(=O)c4ccc(F)cc4)nc3c2)c1 [Compound 28] | > 10000 | > 10000 | 2400 | <5 |  | <5 |  |  | 
CO/N=C(\C)c1cnc2ccc(N(CCO)c3cc(OC)cc(OC)c3)cc2n1 [Compound 29] | > 1000 | > 10000 | 55 | <5 |  |  |  |  | 
COc1cc(OC)cc(N(CCN2CCOCC2)c2ccc3ncc(-c4ccc(NC(=O)N5CCOCC5)nc4)nc3c2)c1 [Compound 35] | 229 | > 10000 | 12 | <5 |  |  |  |  | 
COc1cc(OC)cc(N(CC2CC2)c2ccc3ncc(-c4c[nH]cn4)nc3c2)c1 [Compound 39] | 2950 | > 10000 | 31.6 | <5 |  | <5 |  |  | 
COc1cc(OC)cc(N(CC2CC2)c2ccc3ncc(N4CCOCC4)nc3c2)c1 [Compound 63] | 6610 |  | 537 |  |  |  | > 10000 | <5 | <5
COc1cc(OC)cc(N(CCNC(C)C)c2ccc3ncc(N4CCC(CN)CC4)nc3c2)c1 [Compound 67] | 447 | > 10000 | 3.31 | 5 |  |  |  |  | 
COc1cc(OC)cc(N(CCN)c2ccc3ncc(-c4ccn(C)c4)nc3c2)c1 [Compound 79] | 22.4 | > 10000 | 1.2 |  |  |  |  |  | 
COc1cc(OC)cc(N(CCCNCCCO)c2ccc3ncc(-c4ccnc(C(=O)NCCCCN)c4)nc3c2)c1 [Compound 132] | 309 |  | 4.37 | 5.31 |  |  |  |  | 
COc1cc(OC)cc(N(CCCO)c2ccc3ncc(-c4ccnc(-c5ccnc(Cl)c5)c4)nc3c2)c1 [Compound 133] | > 1000 |  | 110 | <5 |  |  |  |  | 
COc1cc(OC)cc(N(CCCO)c2ccc3ncc(-c4cnc(N5CCN(C)CC5)c(C)c4)nc3c2)c1 [Compound 135] | 170 |  | 2 | 5.43 |  |  |  |  | 
COc1cc(OC)cc(N(CCCNC(C)C)c2ccc3ncc(-c4ccnc(NC(=O)OC(C)(C)C)c4)nc3c2)c1 [Compound 137] | 275 |  | 3.72 | 5.91 |  |  |  |  | 
COc1cc(OC)cc(N(CCO)c2ccc3ncc(-c4ccnc(C(=O)NCCCCCN)c4)nc3c2)c1 [Compound 138] | 759 |  | 22.9 | <5 |  |  |  |  | 
COc1cc(OC)cc(N(CCCO)c2ccc3ncc(-c4ccnc(F)c4)nc3c2)c1 [Compound 142] | 347 | > 10000 | 12.6 |  |  |  |  |  | 
COc1cc(OC)cc(N(CCCNC(C)C)c2ccc3ncc(-c4ccnc(N)c4)nc3c2)c1 [Compound 143] | 52.5 |  | 1.05 | ~5.25 |  |  |  |  | 
COc1cc(OC)cc(N(CCCNCC(F)(F)F)c2ccc3ncc(-c4ccnc(F)c4)nc3c2)c1 [Compound 144] | > 1000 |  | 74.1 | <5 |  |  |  |  | 
COc1cc(OC)cc(N(CCNC(C)C)c2ccc3ncc(-c4ccnc(C(=O)NCCCN)c4)nc3c2)c1 [Compound 146] | 269 |  | 2 | <5 |  |  |  |  | 
COc1cc(OC)cc(N(CCCNCC(F)(F)F)c2ccc3ncc(-c4ccnc(C(=O)NCCCN)c4)nc3c2)c1 [Compound 148] | > 1000 |  | 36.3 | <5 |  |  |  |  | 
COc1cc(OC)cc(N(CCCO)c2ccc3ncc(-c4cccnc4F)nc3c2)c1 [Compound 149] | > 1000 |  | 60.3 | <5 |  |  |  |  | 
COc1cc(OC)cc(N(CCNC(C)C)c2ccc3ncc(-c4ccnn4C4CCCCO4)nc3c2)c1 (centres unmarked) [Compound 188] |  | > 10000 | 10 |  |  |  |  |  | 
COc1cc(OC)cc(N(CCNC(C)C)c2ccc3ncc(-c4ccn[nH]4)nc3c2)c1 [Compound 189] | 126 | > 10000 | 2.82 |  |  |  |  |  | 
